Experimental data from US11191774B2, “Drug formulations for cancer treatment” (The Regents of the University of California, priority 2015, dated 2021).
pIC50: −log10 of the molar value. Several values for one entry are separate records, joined by “and”; a condition that tells them apart may be missing. Equal entries are not always repeated. One block for each compound: values may come before it.

Tests used:
[1] = Drug encapsulation in liposomes (absorbance after dissolution); type: physicochemical; settings: for enhancement of liposomal drug encapsulation relative to 5FU: cationic liposomes; for Drug Incorporation: liposomes 80:10:10 DSPC:DOTAP:Chol containing the 5FU analogue
Method: The dissolved liposomes were centrifuged at 12000 g for 20 minutes to allow the lipids to pellet. […] Drug encapsulation is reported as the mol % of drug with respect to lipids±SD. Liposome sizes and ζ potentials were determined utilizing dynamic light scattering and electrophoretic light scattering, respectively, on a Malvern ZSizer Nano ZS. Samples were diluted 100× in distilled de-ionized water immediately prior analysis, and each measurement is reported as an average of 3 independent sets of at least 13 runs each ±SD. Drug encapsulation was evaluated for each drug, and the encapsulation methods reported here provided the highest yield for each respective drug. […] To remove free drug, liposomes were finally passed through a Sephadex G-25 PD-10 column.

[2] = Encapsulation efficiency and loading capacity of drug-loaded liposomes (Example 4); type: physicochemical; settings: 5FURW in PEGylated liposomes, 2 h encapsulation
Method: Liposomes were prepared with a mixture of DSPC:DSPE-PEG(2000)Amine or DSPE-PEG(2000)Carboxyl:Cholesterol:DOTAP with the ratio 75:5:10:10 via the thin lipid film formation. After the formation of the lipids and passing them through an extruder to obtain monodisperse 100 nm liposomes, the external solvent was changed using a size exclusion column and the drug encapsulated during two hours. Briefly, the thin lipid films were hydrated with 250 mM (NH4)SO4 to form liposomes containing either amine-terminated PEG or carboxy-terminated PEG. 1 mL of liposomes and 200 μL of 73 mM 5FURW were used for the encapsulation of 5FURW into the liposomes. […]
The encapsulation efficiency and loading capacity were calculated as follows: […]
The liposomes were characterized using (i) the Steward assay to determine lipid concentration, (ii) absorbance at 270 nm to evaluate 5FURW concentration, and (iii) dynamic light scattering measurements to evaluate size and surface potential. […]
The DAFODIL fabrication procedure was performed as follows. […] Characterization consisted of absorbance measurements at 270 nm and 480 nm to determine the concentration of 5FURW and DOX, respectively, dynamic light scattering measurements to measure liposome size and surface potential, and Stewart assay to quantify the concentration of lipids in the sample.

[3] = system: MDA-MB-231 breast cancer cell line; test: 5FURW cell viability studies (Example 4); type: cell-based, human; settings: for pIC50: Homo sapiens
Method: (§1) Two breast cancer cell lines (of mouse and human, 4T1 and MDA-MB-231) were tested with the synthesized 5FURW, compared with 5FU and also with encapsulated drug in liposomes functionalized with amino and carboxyl groups (Table 4, FIG. 13).

[4] = Liposome size and zeta potential (dynamic/electrophoretic light scattering); type: physicochemical; settings: liposomes 80:10:10 DSPC:DOTAP:Chol containing the 5FU analogue
Method: To measure drug encapsulation, 50 μL of drug-loaded liposomes were dissolved in 950 μL methanol through vortexing and sonication. The dissolved liposomes were centrifuged at 12000 g for 20 minutes to allow the lipids to pellet. The supernatant was collected, diluted serially, and their absorbances were measured at 480 nm, 266 nm, 264 nm, 268 nm, 268 nm, and 394 nm to quantify DOX, 5FU, 5FUG, 5FUW, 5FUR, and 5FURW concentrations, respectively. Drug encapsulation is reported as the mol % of drug with respect to lipids±SD. Liposome sizes and ζ potentials were determined utilizing dynamic light scattering and electrophoretic light scattering, respectively, on a Malvern ZSizer Nano ZS. Samples were diluted 100× in distilled de-ionized water immediately prior analysis, and each measurement is reported as an average of 3 independent sets of at least 13 runs each ±SD.

[5] = system: 4T1 breast cancer cell line; test: 5FURW cell viability studies (Example 4); type: cell-based, mouse; settings: for pIC50: Mus musculus
Method: as §1

[6] = system: BT-474 human breast cancer cells; test: Combination Index (CI) study of free drugs, MTT cell viability; type: cell-based
Method: (§2) For cell viability studies, BT-474 cells were seeded at a density of 10,000 cells per well in 100 μL cell culture medium, grown overnight and incubated with drug solutions for 72 hours. Cell viability was assessed post drug-incubation via 3-(4,5-Dimethylthiazol-2-yl)-2,5-diphenyltetrazolium bromide (MTT; Invitrogen Life Technologies) assays. Individual drug concentrations which inhibit 50% cell growth (D50) were first determined by fitting dose-effect data to the median-effect model (Chou and Talalay, Advances in Enzyme Regulation 1984, 22, 27-55). For combinatorial studies, 5FU and DOX were simultaneously incubated with BT-474 cells at ratios of differing multiples of their D50 concentrations, and cell viability was subsequently assessed. CI values were further calculated, as previously described (Chou, Pharmacological Reviews 2006, 58(3): p. 621-621), with the designations of CI<1, CI=1, and C>1 respectively representing synergy, additivity, and antagonism. The same methodology was applied to assess interactions between all other chemotherapy combinations presented.

[7] = system: MCF 10A human breast epithelial cells; test: MTT toxicity against healthy epithelial cells; type: cell-based; settings: synergistic ratio R=819 vs single drug
Method: as §2
These cell types were chosen because any systemically-administered drug is susceptible to interactions and uptake by endothelial cells, as well as epithelial cells in surrounding healthy tissue.

[8] = system: ROS generation in BT-474 cells; test: Reactive oxygen species generation, carboxy-H2DCFDA confocal microscopy; type: cell-based, human; settings: 72 hours incubation
Method: To visualize and assess the production of reactive oxygen species (ROS), cells were seeded in an 8-well chambered borosilicate coverglass (Nunc Lab-Tek) at a density of 85,000 cells per well in 300 μL medium and grown overnight prior to incubation with drug solutions in fresh medium. After incubation of BT-474 cells with either 5FU and DOX at a molar ratio of 819:1, 5FU alone, or DOX alone for 72 hours, cells were washed three times in PBS and exposed to 10 μM carboxy-H2DCFDA (Invitrogen Life Technologies) in phosphate buffered saline (PBS; Theimo Scientific) for 30 minutes at 37° C. and 5% CO2. Upon acetate cleavage and oxidation, carboxy-H2DCFDA formed carboxydichlorofluorescein and acted as an ROS indicator. Cells were washed thrice more in PBS, finally suspended in cell culture medium, and immediately imaged live using an Olympus Fluoview 1000 spectral confocal microscope. Carboxydichlorofluorescein and DOX were both excited utilizing a 488 nm 10 mW Argon gas laser and visualized with 492-560 nm and 574-674 nm optical filters, respectively. Images were captured as 10 μm z-stacks, and each z-stack was averaged into a single image using ImageJ 1.47 h software (NIH). Fluorescence intensity is reported as the raw integrated density divided by number of cells, determined by DOX fluorescence which coincided with cell nuclei.

[9] = system: 4T1 murine breast cancer cells; test: Liposomal cancer cell growth inhibition, calcein-AM viability assay; type: cell-based, mouse; settings: 4T1, W concentrations expected during 5FURW cytotoxicity assays, free or liposome-encapsulated
Method: (§3) In vitro anticancer efficacy of drug-loaded liposomes was determined via calcein-AM cell viability assay. BT-474 cells or 4T1 cells were seeded in a 96-well cell culture plate at a density of 11,000 cells per well or 1,000 cells per well in a total volume of 100 μL media and allowed to adhere overnight. Media was then replaced with fresh media containing liposomes and incubated for 72 hours or 48 hours for BT-474 or 4T1 cells, respectively. The discrepancies of cell seeding densities and drug incubation times between BT-474 cells and 4T1 cells is due to the much lower doubling time of 4T1 cells compared to BT-474. Parameters were modified such that untreated cells reached 70% confluency after treatment. After incubation with liposomes, media was aspirated and replaced with 1 μM calcein-AM in PBS for 30 minutes at room temperature. Fluorescence intensity of intracellularly hydrolyzed calcein-AM was measured using excitation and emission wavelengths of 490 nm and 520 nm. Fractional cell inhibition was calculated by subtracting fluorescence of live cells in experimental wells from those of untreated cells and normalizing against untreated cells. D50 concentrations were determined by fitting experimental data to the median-effect model (Chou and Talalay, Advances in Enzyme Regulation 1984, 22, 27-55), and their error is reported as the standard error of the model fit.

BT-474 cells = test: as above; type: cell-based, human
Method: as §3

[10] = literature (Haran et al.); cited from earlier work

enhancement of liposomal drug encapsulation relative to 5FU [1]: 38 fold
Drug Incorporation [1]: 26.6 ± 2.4 mol %
encapsulation efficiency [2]: 20%
loading capacity [2]: 20%
pIC50 [3]: 6.40
Size [4]: 163.8 ± 17.2 nm
Zeta Potential [4]: 32.2 ± 6.5 mV
pIC50 [5]: 4.38
SMILES: NC(Cc1c[nH]c2ccccc12)C(=O)OC[C@H]1O[C@@H](n2cc(F)c(=O)[nH]c2=O)C(OC(=O)C(N)Cc2c[nH]c3ccccc23)C1OC(=O)C(N)Cc1c[nH]c2ccccc12 (some centres unmarked) [5FURW, 5-fluorouridine-2′, 3′, 5′-tritryptophanate]
activity relative to 5FU [3]: 127 fold
activity relative to 5FU [5]: 2.5 fold
anticancer activity compared with 5FUR ([6]; free solution and liposomes, FIGS. 5A and 5B): same anticancer activity as unmodified 5FUR

Drug Incorporation [1]: 3.2 mol % and 3.2 ± 0.4 mol %
Size [4]: 167.4 ± 1.8 nm
Zeta Potential [4]: 19.6 ± 0.6 mV
SMILES: N[C@@H](Cc1c[nH]c2ccccc12)C(=O)OCn1cc(F)c(=O)[nH]c1=O [5FUW, (5-fluoro-2,4-dioxo-3,4-dihydropyrimidin-1(2H)-yl)methyl tryptophanate]

pIC50 (BT-474 cells; BT-474, 72 hrs, fit to ME model, read-out: D50 (DOX-equivalent concentration inhibiting 50% cell growth)): 6.52
SMILES: COc1cccc2c1C(=O)c1c(O)c3c(c(O)c1C2=O)C[C@@](O)(C(=O)CO)C[C@@H]3O[C@H]1C[C@H](N)[C@H](O)[C@H](C)O1 [DOX, doxorubicin]
liposomal encapsulation of DOX [10]: 14-24 mol %
reduction of D50 ratio (BT-474 relative to MCF 10A) by combining at R=819, relative to individual drug [7]: 5 fold
ROS generation [8]: Little ROS generation

Continued, compound first:

SMILES: O=c1[nH]cc(F)c(=O)[nH]1 [5FU, 5-fluorouracil, reference compound]
Drug Incorporation [1]: 0.7 mol % and 0.7 ± 0.2 mol %
reduction of D50 ratio (BT-474 relative to MCF 10A) by combining at R=819, relative to individual drug [7]: 36 fold
ROS generation [8]: negligible ROS generation
pIC50 [3]: 4.30
Size [4]: 173.5 ± 43 nm
Zeta Potential [4]: 41.7 ± 9.8 mV
pIC50 [5]: 3.98
BT-474 cancer cell growth inhibited ([6]; same 5FU concentrations, combination at R=819, FIG. 3B): 40%

SMILES: N[C@@H](Cc1c[nH]c2ccccc12)C(=O)O [tryptophan]
toxicity [9]: non-toxic
toxicity (BT-474 cells; BT-474, W concentrations expected during 5FURW cytotoxicity assays, free or liposome-encapsulated): non-toxic

SMILES: NCC(=O)OCn1cc(F)c(=O)[nH]c1=O [5FUG, 1-[(aminomethyl)-ester]methylene-5-fluorouracil]
Drug Incorporation [1]: 1.4 mol % and 1.4 ± 0.5 mol %
Size [4]: 161.8 ± 10.8 nm
Zeta Potential [4]: 41.2 ± 1.8 mV

SMILES: O=c1[nH]c(=O)n([C@@H]2O[C@H](CO)[C@@H](O)[C@H]2O)cc1F [5FUR, 5-fluorouridine, reference compound]
enhancement of liposomal drug encapsulation relative to 5FU [1]: ~5 fold
Drug Incorporation [1]: 3.7 mol % and 3.7 ± 0.2 mol %
Size [4]: 177.4 ± 2.8 nm
Zeta Potential [4]: 37.9 ± 1.0 mV
